Test results reported in patent publication US11753404B2, “Aminothiazole compounds as c-Kit inhibitors” (Ariad Pharmaceuticals, Inc., priority 2016, dated 2023).

What was measured:
Experiment in all cases: c-Kit assay: Ba/F3 KIT mutant cell viability (Cell Titer-Glo, 72 hours)
Type in all cases: cell-based
Details in all cases: viability after 72 hours
[1] = molecular target: T1, BAF3 FL KIT EX11DEL (Homo sapiens, UniProt P10721, cells depend on it, form not given)
T1 construct: BAF3 FL KIT EX11DEL
T1 sequence (P10721 with tags, fused parts or gaps DEL557-558): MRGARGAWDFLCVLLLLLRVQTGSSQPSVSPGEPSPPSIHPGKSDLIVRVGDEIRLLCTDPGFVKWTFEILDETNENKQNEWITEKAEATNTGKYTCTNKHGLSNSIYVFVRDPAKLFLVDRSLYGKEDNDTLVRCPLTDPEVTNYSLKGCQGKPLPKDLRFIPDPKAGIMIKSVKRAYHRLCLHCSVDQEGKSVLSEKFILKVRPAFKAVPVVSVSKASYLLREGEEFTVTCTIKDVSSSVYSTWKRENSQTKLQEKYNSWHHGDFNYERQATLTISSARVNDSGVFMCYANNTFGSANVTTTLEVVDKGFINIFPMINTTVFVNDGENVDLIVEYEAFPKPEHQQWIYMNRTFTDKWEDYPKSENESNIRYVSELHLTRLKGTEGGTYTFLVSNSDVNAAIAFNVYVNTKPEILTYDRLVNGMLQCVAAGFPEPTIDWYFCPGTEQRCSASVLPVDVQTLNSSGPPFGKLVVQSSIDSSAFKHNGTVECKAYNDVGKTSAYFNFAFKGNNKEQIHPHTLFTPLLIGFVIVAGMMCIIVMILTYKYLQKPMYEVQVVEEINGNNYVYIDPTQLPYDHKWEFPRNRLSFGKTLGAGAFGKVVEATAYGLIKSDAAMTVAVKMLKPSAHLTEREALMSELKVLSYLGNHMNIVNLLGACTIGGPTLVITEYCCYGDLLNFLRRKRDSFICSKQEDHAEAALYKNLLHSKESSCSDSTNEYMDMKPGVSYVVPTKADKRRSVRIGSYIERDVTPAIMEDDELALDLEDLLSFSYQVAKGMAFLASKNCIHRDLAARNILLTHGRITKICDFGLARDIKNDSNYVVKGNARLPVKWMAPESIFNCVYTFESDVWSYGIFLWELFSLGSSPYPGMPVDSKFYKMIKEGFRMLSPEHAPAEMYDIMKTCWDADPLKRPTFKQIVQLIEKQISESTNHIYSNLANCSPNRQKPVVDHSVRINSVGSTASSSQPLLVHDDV
Procedure: (§1) Generation of DBa/F3 KIT Mutant Engineered Cell Lines
(§2) KIT cDNAs were synthesized by GenScript and cloned into the pLVX-IRES-Puro vector (Clontech). Viral particles were produced by transfecting pLVX-IRES-puro vectors containing KIT mutant genes into HEK293 cells (Invitrogen) using the Trans-Lentiviral ORF Packaging Kit (Thermo Scientific). 48 hours post-transfection, virus-containing supernatants were harvested and incubated for another 48-72 hours with parental Ba/F3 cells (DSMZ) in the presence of 10 ng/mL IL-3 (R&D Systems). Transduced Ba/F3 cells were then selected by IL-3 withdrawal and puromycin (0.5-1 μg/mL, Invitrogen).
(§3) Cell lines (e.g., EX11DEL, EX11DEL/D816H, EX11DEL/T670I, and EX11DEL/V654A) were plated into 384 well plates using RPMI 1640 supplemented with 10% FBS at densities that produced linear growth and incubated at 37° C. in 5% (v/v) CO2. Cells were treated with eight concentrations of compound over a 4-fold dilution (10 μM to 0.61 nM) and viability was assessed using Cell Titer-Glo assay (Promega) after 72 hours. Data were plotted as percent viability relative to vehicle-treated cells. Dose-responses curves were generated and used to calculate IC50 values.

[2] = molecular target: T2, BAF3 FL KIT EX11DEL/T670I (Homo sapiens, UniProt P10721, T670I, cells depend on it, form not given)
T2 construct: BAF3 FL KIT EX11DEL/T670I
T2 sequence (P10721 with tags, fused parts or gaps DEL557-558/T670I, form open): as the sequence (P10721 with tags, fused parts or gaps DEL557-558) above, with T668I counted along it
Procedure: as §1, §2, §3

[3] = molecular target: T3, BAF3 FL KIT EX11DEL/D816H (Homo sapiens, UniProt P10721, D816H, cells depend on it, form not given)
T3 construct: BAF3 FL KIT EX11DEL/D816H
T3 sequence (P10721 with tags, fused parts or gaps DEL557-558/D816H, form open): as the sequence (P10721 with tags, fused parts or gaps DEL557-558) above, with D814H counted along it
Procedure: as §1, §2, §3

[4] = molecular target: T4, BAF3 FL KIT EX11DEL/V654A (Homo sapiens, UniProt P10721, V654A, cells depend on it, form not given)
T4 construct: BAF3 FL KIT EX11DEL/V654A
T4 sequence (P10721 with tags, fused parts or gaps DEL557-558/V654A, form open): as the sequence (P10721 with tags, fused parts or gaps DEL557-558) above, with V652A counted along it
Procedure: as §1, §2, §3

Structure (SMILES)	GI50 [1]	GI50 [2]	GI50 [3]	GI50 [4]
Cc1ccc(C(=O)Nc2cc(C(F)(F)F)ccn2)cc1C#Cc1cnc(NC(=O)N2CCC(N(C)C)C2)s1 (stereo not shown) [I-40, 3-(dimethylamino)-N-(5-((2-methyl-5-((4-(trifluoromethyl)pyridin-2-yl)carbamoyl)phenyl)ethynyl)thiazol-2-yl)pyrrolidine-1-carboxamide]	< 10 nM	< 10 nM	10 to 50 nM	10 to 50 nM
Cc1ccc(C(=O)Nc2cc(C(F)(F)F)ccn2)cc1C#Cc1cnc(NC(=O)N2CCC(N3CCN(C)CC3)CC2)s1 [I-41, N-(5-((2-methyl-5-((4-(trifluoromethyl)pyridin-2-yl)carbamoyl)phenyl)ethynyl)thiazol-2-yl)-4-(4-methylpiperazin-1-yl)piperidine-1-carboxamide]	< 10 nM	10 to 50 nM	10 to 50 nM	10 to 50 nM
CNC(=O)Nc1ncc(C#Cc2ccc(F)c(C(=O)Nc3cc(C(F)(F)F)ccn3)c2)s1 [I-42, 2-fluoro-5-((2-(3-methylureido)thiazol-5-yl)ethynyl)-N-(4-(trifluoromethyl)pyridin-2-yl)benzamide]	< 10 nM	100 to 10000 nM	100 to 10000 nM	100 to 10000 nM
NC(=O)Nc1ncc(C#Cc2ccc(F)c(C(=O)Nc3cc(C(F)(F)F)ccn3)c2)s1 [I-43, 2-fluoro-N-(4-(trifluoromethyl)pyridin-2-yl)-5-((2-ureidothiazol-5-yl)ethynyl)benzamide]	< 10 nM	100 to 10000 nM	100 to 10000 nM	100 to 10000 nM
CNC(=O)Nc1ncc(C#Cc2cccc(C(=O)Nc3cc(C(F)(F)F)ccn3)c2)s1 [I-44, 3-((2-(3-methylureido)thiazol-5-yl)ethynyl)-N-(4-(trifluoromethyl)pyridin-2-yl)benzamide]	< 10 nM	< 10 nM	10 to 50 nM	10 to 50 nM
CNC(=O)Nc1ncc(C#Cc2cc(C(=O)Nc3cc(C(F)(F)F)ccn3)ccc2F)s1 [I-45, 4-fluoro-3-((2-(3-methylureido)thiazol-5-yl)ethynyl)-N-(4-(trifluoromethyl)pyridin-2-yl)benzamide]	< 10 nM	< 10 nM	10 to 50 nM	10 to 50 nM
COCCN(C)C(=O)Nc1ncc(C#Cc2cc(C(=O)Nc3ccc(CN4CCCC4)c(C(F)(F)F)c3)ccc2C)s1 [I-46, 3-((2-(3-(2-methoxyethyl)-3-methylureido)thiazol-5-yl)ethynyl)-4-methyl-N-(4-(pyrrolidin-1-ylmethyl)-3-(trifluoromethyl)phenyl)benzamide]	10 to 50 nM	10 to 50 nM	10 to 50 nM	50 to 100 nM
COCCN(C)C(=O)Nc1ncc(C#Cc2cc(C(=O)Nc3cccc(C(F)(F)F)c3OC)ccc2C)s1 [I-47, N-(2-methoxy-3-(trifluoromethyl)phenyl)-3-((2-(3-(2-methoxyethyl)-3-methylureido)thiazol-5-yl)ethynyl)-4-methylbenzamide]	< 10 nM	100 to 10000 nM	10 to 50 nM	10 to 50 nM
COCCN(C)C(=O)Nc1ncc(C#Cc2cc(C(=O)Nc3ccc(C#N)c(C(F)(F)F)c3)ccc2C)s1 [I-48, N-(4-cyano-3-(trifluoromethyl)phenyl)-3-((2-(3-(2-methoxyethyl)-3-methylureido)thiazol-5-yl)ethynyl)-4-methylbenzamide]	< 10 nM	10 to 50 nM	10 to 50 nM	50 to 100 nM
Cc1ccc(C(=O)Nc2cc(C(F)(F)F)ccn2)cc1C#Cc1cnc(NC(=O)C2CC2)s1 [I-49, 3-((2-(cyclopropanecarboxamido)thiazol-5-yl)ethynyl)-4-methyl-N-(4-(trifluoromethyl)pyridin-2-yl)benzamide]	< 10 nM	10 to 50 nM	10 to 50 nM	10 to 50 nM
